# According to patent US4925852A, “3-demethylmevalonic acid derivatives, and pharmaceutical products based on these compounds” (Hoechst Aktiengesellschaft, priority 1987, dated 1990):
# Where a name gives a salt, the structure may show the parent alone.
# System: 3-hydroxy-3-methylglutaryl-coenzyme A reductase (HMG-CoA reductase)
# Experiment: not given
# Details: cited from earlier work
row,SMILES,inhibition of HMG-CoA reductase (literature)
1,CC[C@H](C)C(=O)O[C@H]1CCC=C2C=C[C@H](C)[C@H](CC[C@@H]3C[C@@H](O)CC(=O)O3)[C@H]21 [compactin],inhibition

# System: HEP-G2 cells (cholesterol biosynthesis)
# Experiment: Inhibition of cholesterol biosynthesis in cell cultures of HEP-G2 cells (14C-acetate into 14C-cholesterol)
# Type: cell-based
# Details: Homo sapiens, HepG2, Table 2, preincubation for example 1 hour, 14C-acetate for example 3 hours, read-out: IC50 (concentration of the compound which brings about 50% inhibition of cholesterol biosynthesis)
# Protocol: Monolayers of HEP-G2 cells in lipoprotein-free nutrient medium were preincubated with appropriate concentrations of the test substances for a defined time (for example 1 hour), the labeled precursor, for example sodium ^14 C-acetate was added and then the incubation was continued (for example for 3 hours). Addition of an internal standard (^3 H-cholesterol) was followed by alkaline hydrolysis of some of the cells. The lipids were extracted from the hydrolyzed cells using chloroform/methanol. Carrier cholesterol was added to this lipid mixture which was then subjected to preparative thin-layer chromatography, the cholesterol band was visualized with iodine vapor and then isolated, and the amount of ^14 C-cholesterol formed from the ^14 C-precursor was determined by scintigraphy. Cellular protein was determined in an aliquot of the cells, so that it is possible to calculate the amount of ^14 C-cholesterol formed per mg of cellular protein in unit time.
# in nmol of ^14 C-cholesterol/mg of cell protein
# in comparison with the solvent control.
# Using the method described above, the following values for the inhibition of cholesterol biosynthesis (in HEP-G2 cells) were determined for the compounds according to the invention, for example (the IC50 /mol/liter is the concentration of the compound which brings about 50% inhibition of cholesterol biosynthesis) (Tab. 2): […]
row,SMILES,IC50
1,Cc1nc(-c2ccccc2)cc(-c2ccc(F)cc2)c1/C=C/[C@@H]1C[C@@H](O)CC(=O)O1 [Example 11c],90 nM
2,Cc1cc(-c2ccc(F)cc2)c(/C=C/[C@@H]2C[C@@H](O)CC(=O)O2)c(C(C)C)n1 [Example 11d],50 nM
3,CC(C)c1nc(-c2ccccc2)cc(-c2ccc(F)cc2)c1/C=C/[C@@H]1C[C@@H](O)CC(=O)O1 [Example 11e],5 nM
4,CC(C)c1nc(-c2ccccc2)nc(-c2ccc(F)cc2)c1/C=C/[C@@H]1C[C@@H](O)CC(=O)O1 [Example 11o],5 nM

# System: cholesterol
# Experiment: not given
# Details: literature; cited from earlier work
row,SMILES,cholesterol-lowering action in the rat
1,CC(O)(CC(=O)O)CC(=O)O [3-Hydroxy-3-methylglutaric acid],significant cholesterol-lowering action

# Biological target: T1, HMG-CoA reductase (Rattus norvegicus, UniProt P51639)
# T1 construct: solubilized enzyme preparations from rat liver microsomes; from tissue; host or cells: rat liver microsomes (cholestyramine-induced), solubilized
# T1 sequence (P51639 1-887): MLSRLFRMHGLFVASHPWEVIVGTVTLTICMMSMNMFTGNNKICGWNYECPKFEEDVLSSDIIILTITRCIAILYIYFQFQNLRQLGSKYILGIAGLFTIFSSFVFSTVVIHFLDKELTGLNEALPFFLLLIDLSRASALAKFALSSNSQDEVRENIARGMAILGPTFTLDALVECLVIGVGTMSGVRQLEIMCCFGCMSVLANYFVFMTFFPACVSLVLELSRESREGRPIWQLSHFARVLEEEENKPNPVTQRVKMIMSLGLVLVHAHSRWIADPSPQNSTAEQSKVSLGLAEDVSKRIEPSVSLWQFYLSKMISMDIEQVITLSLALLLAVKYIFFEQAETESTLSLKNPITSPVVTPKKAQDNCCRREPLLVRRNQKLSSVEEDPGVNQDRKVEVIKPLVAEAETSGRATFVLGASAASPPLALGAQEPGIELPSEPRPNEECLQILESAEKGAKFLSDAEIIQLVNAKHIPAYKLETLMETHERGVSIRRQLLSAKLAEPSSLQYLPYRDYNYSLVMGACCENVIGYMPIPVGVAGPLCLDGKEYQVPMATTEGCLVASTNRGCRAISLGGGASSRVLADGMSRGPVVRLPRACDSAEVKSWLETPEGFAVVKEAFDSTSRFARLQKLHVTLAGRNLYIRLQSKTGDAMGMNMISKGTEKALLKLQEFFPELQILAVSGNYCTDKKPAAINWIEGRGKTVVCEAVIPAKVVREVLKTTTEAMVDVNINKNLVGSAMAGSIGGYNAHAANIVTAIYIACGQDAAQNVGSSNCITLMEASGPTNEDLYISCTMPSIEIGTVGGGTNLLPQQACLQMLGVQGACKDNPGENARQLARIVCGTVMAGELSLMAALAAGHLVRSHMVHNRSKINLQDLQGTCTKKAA
# Experiment: HMG-CoA reductase activity in solubilized enzyme preparations from rat liver microsomes (14C-HMG-CoA)
# Type: biochemical
# Details: Table 1; solubilized rat liver microsomal enzyme; mean of 3 parallel samples; read-out: IC50 (molar concentration of the compound required for 50% inhibition of HMG-CoA reductase)
# Protocol: The HMG-CoA reductase activity was measured on solubilized enzyme preparations from rat liver microsomes induced, after a changeover in the day/night rhythm, with cholestyramine (® CUEMID). The substrate used was (S,R)-^14 C-HMG-CoA, and the NADPH concentration was maintained during the incubation by a regenerating system. ^14 C-Mevalonate was separated from the substrate and other products (for example ^14 C-HMG) by column elution, the elution profile of each individual sample being determined. ^3 H-Mevalonate was not always included in the determination because relative data on the inhibitory effects were required. […] Each individual value was the mean formed from 3 parallel samples. The significance of the mean differences between product-free and product-containing samples was assessed using the t test.
row,IC50,SMILES
1,260 nM,"Cc1cc(-c2ccc(F)cc2)c(/C=C/[C@@H](O)C[C@@H](O)CC(=O)O)c(C)n1 [Example 13a, (E)- and (Z)-(3R,5S)-3,5-Dihydroxy-7-(2,6-dimethyl-4-(4-fluorophenyl)pyridin-3-yl)-6-heptenoic acid potassium salts]"
2,1.5 nM,CC(C)c1nc(-c2ccc(O)cc2)cc(-c2ccc(F)cc2)c1/C=C/[C@@H](O)C[C@@H](O)CC(=O)O [Example 13ab]
3,1 nM,O=C(O)C[C@H](O)C[C@H](O)/C=C/c1c(-c2ccc(F)cc2)cc(-c2ccccc2)nc1C1CC1 [Example 13ac]
4,94 nM,Cc1cc(-c2ccc(Cl)cc2)c(/C=C/[C@@H](O)C[C@@H](O)CC(=O)O)c(C)n1 [Example 13b]
5,38 nM,Cc1nc(-c2ccccc2)cc(-c2ccc(F)cc2)c1/C=C/[C@@H](O)C[C@@H](O)CC(=O)O [Example 13c]
6,9.1 nM,Cc1cc(-c2ccc(F)cc2)c(/C=C/[C@@H](O)C[C@@H](O)CC(=O)O)c(C(C)C)n1 [Example 13d]
7,2.9 nM,CC(C)c1nc(-c2ccccc2)cc(-c2ccc(F)cc2)c1/C=C/[C@@H](O)C[C@@H](O)CC(=O)O [Example 13e]
8,4 nM,CC(C)c1cc(-c2ccccc2)nc(-c2ccc(F)cc2)c1/C=C/[C@@H](O)C[C@@H](O)CC(=O)O [Example 13f]
9,18 nM,CC(C)(C)c1nc(-c2ccccc2)cc(-c2ccc(F)cc2)c1/C=C/[C@@H](O)C[C@@H](O)CC(=O)O [Example 13g]
10,5 nM,Cc1ccc(C)c(-c2cc(-c3ccc(F)cc3)c(/C=C/[C@@H](O)C[C@@H](O)CC(=O)O)c(C(C)C)n2)c1 [Example 13i]
11,2.3 nM,CC(C)c1nc(-c2ccc(F)cc2)cc(-c2ccc(F)cc2)c1/C=C/[C@@H](O)C[C@@H](O)CC(=O)O [Example 13j]
12,500 nM,Cc1nc(C)c(/C=C/[C@@H](O)C[C@@H](O)CC(=O)O)c(-c2ccc(F)cc2)n1 [Example 13k]
13,600 nM,Cc1nc(C)c(/C=C/[C@@H](O)C[C@@H](O)CC(=O)O)c(-c2ccc(Cl)cc2)n1 [Example 13l]
14,3 nM,CC(C)c1nc(-c2ccccc2)nc(-c2ccc(F)cc2)c1/C=C/[C@@H](O)C[C@@H](O)CC(=O)O [Example 13o]
15,2.5 nM,CC(C)c1cc(-c2ccc(F)cc2)c(/C=C/[C@@H](O)C[C@@H](O)CC(=O)O)c(C(C)C)n1 [Example 13q]
16,1.2 nM,CC(C)c1nc(C(C)(C)C)cc(-c2ccc(F)cc2)c1/C=C/[C@@H](O)C[C@@H](O)CC(=O)O [Example 13r]
17,3.7 nM,CC(C)c1nc(C2CCCCC2)cc(-c2ccc(F)cc2)c1/C=C/[C@@H](O)C[C@@H](O)CC(=O)O [Example 13s]
18,2.5 nM,CC(C)c1nc(-c2ccc(F)cc2)c(/C=C/[C@@H](O)C[C@@H](O)CC(=O)O)c(C(C)C)n1 [Example 13v]
19,0.9 nM,CC(C)c1nc(-c2ccc(F)cc2)nc(-c2ccc(F)cc2)c1/C=C/[C@@H](O)C[C@@H](O)CC(=O)O [Example 13w]

# System: cholesterol
# Experiment: not given
# Details: literature; cited from earlier work
# Remark: another data set of the same source
row,SMILES,cholesterol-lowering action in human experiments
1,CC(O)(CC(=O)O)CC(=O)O [3-Hydroxy-3-methylglutaric acid],significant cholesterol-lowering action
